Data taken from US10494380B2, “Nitrogen-containing tricyclic derivatives having HIV replication inhibitory activity” (priority 2015, dated 2019).
pEC50, pIC50: −log10 of the molar value. Where two headings read alike, the source gives them in different places.

Key:
[1] = system: HIV; format: cell-based; details: EC50 in the presence of human serum (25%) versus without human serum, MT-4 cells
Method in brief: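 Compound is preincubated 1 h at room temperature with human serum, or with medium alone as the serum-free control. MT-4 cells infected with HIV (1 h, 37° C) are added and cultured 4 days. EC50 is determined with and without serum; their ratio gives the potency shift.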

[2] = target: CYP3A4 (Homo sapiens (Human), UniProt P08684); assay: CYP3A4 (MDZ) MBI test (Test Example 6); details: pooled human liver microsomes, midazolam 1-hydroxylation, preincubation 0 or 30 min
Sequence of CYP3A4 (P08684 whole entry): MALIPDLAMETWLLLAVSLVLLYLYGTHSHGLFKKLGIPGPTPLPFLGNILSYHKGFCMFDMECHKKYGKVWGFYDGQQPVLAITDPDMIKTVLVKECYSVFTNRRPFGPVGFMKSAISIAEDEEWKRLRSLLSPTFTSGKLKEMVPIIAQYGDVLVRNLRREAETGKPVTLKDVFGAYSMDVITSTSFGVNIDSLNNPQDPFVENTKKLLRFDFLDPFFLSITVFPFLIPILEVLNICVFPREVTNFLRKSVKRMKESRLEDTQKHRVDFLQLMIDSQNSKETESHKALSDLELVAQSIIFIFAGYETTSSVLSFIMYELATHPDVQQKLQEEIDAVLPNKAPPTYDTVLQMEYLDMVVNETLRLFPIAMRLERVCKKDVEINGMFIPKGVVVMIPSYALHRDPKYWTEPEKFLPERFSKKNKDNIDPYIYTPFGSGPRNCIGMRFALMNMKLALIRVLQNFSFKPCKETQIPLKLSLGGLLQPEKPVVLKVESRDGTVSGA

[3] = target: CYP2C9 (Homo sapiens (Human), UniProt P11712); assay: CYP inhibition assay, tolbutamide methyl-hydroxylation (Test Example 4); format: in vitro ADME; details: pooled human hepatic microsome, 100 μmol/L tolbutamide, 15 minutes, 37° C.
Sequence of CYP2C9 (P11712 whole entry): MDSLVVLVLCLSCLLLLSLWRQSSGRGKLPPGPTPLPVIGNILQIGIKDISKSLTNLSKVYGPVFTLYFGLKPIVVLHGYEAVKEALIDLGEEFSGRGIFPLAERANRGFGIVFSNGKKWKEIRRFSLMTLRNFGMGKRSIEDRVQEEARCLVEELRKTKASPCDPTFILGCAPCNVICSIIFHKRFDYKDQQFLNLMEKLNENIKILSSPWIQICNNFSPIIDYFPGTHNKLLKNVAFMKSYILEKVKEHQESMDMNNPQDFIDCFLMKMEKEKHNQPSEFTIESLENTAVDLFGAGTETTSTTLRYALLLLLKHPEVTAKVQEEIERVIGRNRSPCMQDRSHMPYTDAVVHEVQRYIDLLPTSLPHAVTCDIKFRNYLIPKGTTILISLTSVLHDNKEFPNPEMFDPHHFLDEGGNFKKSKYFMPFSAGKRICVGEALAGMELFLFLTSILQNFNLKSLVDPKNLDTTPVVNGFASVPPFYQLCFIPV
Experimental: Using commercially available pooled human hepatic microsome, and employing, as markers, 7-ethoxyresorufin O-deethylation (CYP1A2), tolbutamide methyl-hydroxylation (CYP2C9), mephenytoin 4′-hydroxylation (CYP2C19), dextromethorphan O-demethylation (CYP2D6), and terfenadine hydroxylation (CYP3A4) as typical substrate metabolism reactions of human main five CYP enzyme forms (CYP1A2, 2C9, 2C19, 2D6, 3A4) an inhibitory degree of each metabolite production amount by a test compound was assessed.
The reaction conditions were as follows: substrate, 0.5 μmol/L ethoxyresorufin (CYP1A2), 100 μmol/L tolbutamide (CYP2C9), 50 μmol/L S-mephenytoin (CYP2C19), 5 μmol/L dextromethorphan (CYP2D6), 1 μmol/L terfenedine (CYP3A4); reaction time, 15 minutes; reaction temperature, 37° C.; enzyme, pooled human hepatic microsome 0.2 mg protein/mL; test drug concentration, 1, 5, 10, 20 μmol/L (four points).
Each five kinds of substrates, human hepatic microsome, and a test drug in 50 mmol/L Hepes buffer as a reaction solution was added to a 96-well plate as the composition ad described above, NADPH, as a coenzyme was added to initiate metabolism reactions as markers and, after the incubation at 37° C. for 15 minutes, a methanol/acetonitrile=1/1 (V/V) solution was added to stop the reaction. After the centrifugation at 3000 rpm for 15 minutes, resorufin (CYP1A2 metabolite) in the supernatant was quantified by a fluorescent multilabel counter and tolbutamide hydroxide (CYP2C9 metabolite), mephenytoin 4′ hydroxide (CYP2C19 metabolite), dextrorphan (CYP2D6 metabolite), and terfenadine alcohol (CYP3A4 metabolite) were quantified by LC/MS/MS.

[4] = system: HIV (HTLV-IIIB strain); assay: HIV replication inhibition assay (Test Example 1; MT-4 cells, MTT); format: cell-based; details: MT-4 cells, MTT; for EC90: read-out: EC90; for pEC50: read-out: EC50
Experimental: HIV (HTLV-IIIB strain) persistent infected human T cell strain Molt-4 clone8 was cultured in RPMI-1640 medium supplemented with 10% fetal bovine serum and the supernatant was filtered, then the virus titer was measured and stored at −80° C. Each anti-human immunodeficiency virus active substance was diluted with the above culture medium to the designated concentration, which was dispensed into 96-well microtiter plate by 50 μL. Next, 100 μL of MT-4 cell suspension (2.5×10^4 cells) was dispensed into each well, then 50 μl of the above HIV-containing supernatant diluted with the above culture medium was added thereto (60 pfu (plaque forming unit)).
Cell mixture was cultured at 37° C. in CO2 incubator for four days, then 30 μL of MTT (3-(4,5-dimethylthiazole-2-yl)-2,5-diphenyltetrazolyum bromide) reagent (5 mg/mL in PBS) was added to all wells followed by incubation for 1 hour. In this step, MTT was reduced to insoluble formazan in living cells. To elute generated formazan 150 μL of the culture supernatant was removed from all wells, then 150 μL of cell lysis solution (10% Triton X-100 and 0.4% (v/v)-HCl containing isopropanol) was added thereto, followed by shaking with a plate mixer. The formazan was measured with micro plate reader at OD: 560 nm and 690 nm (reference wavelength) and the result was compared with the reference wells. EC50 and EC90 mean the compound concentration at which cytotoxicity caused by virus infection is inhibited 50% and 90%, respectively.

[5] = system: sheep red blood cells (RBC); assay: Photohemolysis test (Test Example 13); format: cell-based; details: 0.0008 to 0.1 w/v %, 10 J/cm2 UV-irradiation (290-400 nm)
Text: Aliquots of sheep red blood cells (RBC) suspension prepared with medium to make a 2.5 v/v % concentration are dispensed into microplates. The compound of the present invention was desolved with a vehicle to make target concentrations and then these solutions were immediately added (in concentrations of 0.0008 to 0.1 w/v %) into the microplates. The mixtures on the microplates were exposed to 10 J/cm2 of UV-irradiation (UV-A and UV-B, 290-400 nm) with a GL20SE lamp (SANKYO DENKI) and a FL20S-BLB lamp (Panasonic). After the UV-irradiation, the mixtures were centrifuged. Aliquots of supernatant were transferred to a microplate. Absorbance of the supernatants was measured at 540 nm and 630 nm for judgement of the potential of phototoxicity. In the study, two endpoints were evaluated in biomembrane impairment (% of photohemolysis index; PI) and hyperoxidation of lipid membrane (methemoglobin formation; met-Hb) with the absorbance at 540 nm and 630 nm, respectively. PI and met-Hb were assessed based on the negative criteria (−), PI<10% and changes in absorbance at 630 nm<0.05, respectively. All else was judged as positive (+).

[6] = system: T125A mutant virus (HIV-1 NL-432 recombinant molecular clone, IN gene); assay: HIV replication inhibition assay against integrase 124/125 mutant virus (Test Example 2); format: cell-based
Method in brief: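 MT-4 cells (2.5×10^4 per well) infected with 60 pfu of 293T-derived HIV-1 NL-432 clone carrying integrase 124/125 point mutations, in presence of compound, cultured 4 days at 37 °C. Viability by MTT formazan at 560/690 nm; EC50 = concentration inhibiting 50% of virus-induced cytotoxicity.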

[7] = Human immunodeficiency virus 1, MT4, 96 h, HIV (HTLV-IIIB strain), four days
[8] = Human immunodeficiency virus 1, MT4, read-out: EC50 against T125A mutant virus, T125A mutant virus (HIV-1 NL-432 IN gene), MT-4 cells, MTT
[9] = HIV (HTLV-IIIB strain), four days
[10] = T125A mutant virus (HIV-1 NL-432 IN gene), MT-4 cells, MTT, read-out: EC50 against T125A mutant virus

Cc1ccc(-c2c([C@H](OC(C)(C)C)C(=O)O)c(C)c3c4c2cc(C)n4C(C)CN3CCN(C)C)cc1 (single isomer, unassigned) [Compound I-164]
Potency shift value [1]: 2.6 | CYP3A4 (MDZ) MBI, shifted IC [2]: (−) (When a shifted IC was 1.0 or less, this was defined as negative) | pIC50 [3]: < 4.70 | EC90 [4, 7]: 20 nM | pEC50 ([4]; Human immunodeficiency virus 1, MT4, 96 h, HIV HTLV-IIIB strain, cultured four days): 7.96 | Photohemolysis test, potential of phototoxicity (PI and met-Hb) [5]: (−) (negative criteria (−), PI<10% and changes in absorbance at 630 nm<0.05, respectively) | pEC50 [6, 8]: 7.38

Cc1ccc(-c2c(C(OC(C)(C)C)C(=O)O)c(C)c3c4c2cc(C)n4CCN3CCN(C)C)cc1 (stereo not shown) [Compound I-027]
Potency shift value [1]: 1.4 | CYP3A4 (MDZ) MBI, shifted IC [2]: (−) (When a shifted IC was 1.0 or less, this was defined as negative) | pIC50 [3]: < 4.70 | pEC50 [4, 9]: 8.00 | EC90 [4, 9]: 16 nM | Photohemolysis test, potential of phototoxicity (PI and met-Hb) [5]: (−) (negative criteria (−), PI<10% and changes in absorbance at 630 nm<0.05, respectively) | pEC50 [6, 10]: 7.59

Cc1c([C@H](OC(C)(C)C)C(=O)O)c(-c2ccc(Cl)cc2)c2cc(C)n3c2c1N(S(C)(=O)=O)[C@@H](CC(F)F)C3 [Compound I-041]
Potency shift value [1]: 4.1 | CYP3A4 (MDZ) MBI, shifted IC [2]: (−) (When a shifted IC was 1.0 or less, this was defined as negative) | pIC50 [3]: < 4.70 | pEC50 [4, 7]: 8.82 | EC90 [4, 7]: 2.3 nM | Photohemolysis test, potential of phototoxicity (PI and met-Hb) [5]: (−) (negative criteria (−), PI<10% and changes in absorbance at 630 nm<0.05, respectively) | pEC50 [6, 8]: 7.89

COCC[C@H]1Cn2c(C)cc3c(-c4ccc(Cl)cc4)c([C@H](OC(C)(C)C)C(=O)O)c(C)c(c32)N1S(C)(=O)=O [Compound I-043]
Potency shift value [1]: 3.2 | CYP3A4 (MDZ) MBI, shifted IC [2]: (−) (When a shifted IC was 1.0 or less, this was defined as negative) | pIC50 [3]: < 4.70 | pEC50 [4, 9]: 8.85 | EC90 [4, 9]: 2.3 nM | Photohemolysis test, potential of phototoxicity (PI and met-Hb) [5]: (−) (negative criteria (−), PI<10% and changes in absorbance at 630 nm<0.05, respectively) | pEC50 [6, 10]: 7.96

Cc1c([C@H](OC(C)(C)C)C(=O)O)c(-c2ccc(Cl)cc2)c2cc(C)n3c2c1N(c1ncc(F)cn1)CC3 [Compound I-122]
Potency shift value [1]: 23 | CYP3A4 (MDZ) MBI, shifted IC [2]: (−) (When a shifted IC was 1.0 or less, this was defined as negative) | pIC50 [3]: < 4.70 | pEC50 [4, 7]: 8.89 | EC90 [4, 7]: 2.9 nM | Photohemolysis test, potential of phototoxicity (PI and met-Hb) [5]: (−) (negative criteria (−), PI<10% and changes in absorbance at 630 nm<0.05, respectively) | pEC50 [6, 8]: 8.29

COc1cnc(N2CCn3c(C)cc4c(-c5ccc(Cl)cc5)c([C@H](OC(C)(C)C)C(=O)O)c(C)c2c43)nc1 [Compound I-156]
Potency shift value [1]: 12 | CYP3A4 (MDZ) MBI, shifted IC [2]: (−) (When a shifted IC was 1.0 or less, this was defined as negative) | pIC50 [3]: < 4.70 | pEC50 [4, 7]: 9.07 | EC90 [4, 7]: 1.2 nM | Photohemolysis test, potential of phototoxicity (PI and met-Hb) [5]: (−) (negative criteria (−), PI<10% and changes in absorbance at 630 nm<0.05, respectively) | pEC50 [6, 8]: 8.44

Cc1c([C@H](OC(C)(C)C)C(=O)O)c(-c2ccc(Cl)cc2)c2cc(C)n3c2c1N(c1ncc2ccccc2n1)CC3 [Compound I-157]
Potency shift value [1]: 12 | CYP3A4 (MDZ) MBI, shifted IC [2]: (−) (When a shifted IC was 1.0 or less, this was defined as negative) | pIC50 [3]: < 4.70 | pEC50 [6, 8]: 7.92

Cc1nc(N2CCn3c(C)cc4c(-c5ccc(Cl)cc5)c([C@H](OC(C)(C)C)C(=O)O)c(C)c2c43)no1 [Compound I-176]
Potency shift value [1]: 12 | CYP3A4 (MDZ) MBI, shifted IC [2]: (−) (When a shifted IC was 1.0 or less, this was defined as negative) | EC90 [4, 9]: 5.6 nM | pEC50 ([4]; HIV HTLV-IIIB strain, cultured four days): 8.64 | Photohemolysis test, potential of phototoxicity (PI and met-Hb) [5]: (−) (negative criteria (−), PI<10% and changes in absorbance at 630 nm<0.05, respectively) | pEC50 [6, 10]: 8.34
